{
  "source": "patent US9611286B2",
  "about": "“Ruthenium carbon monoxide releasing molecules and uses thereof” (Alfama, Inc., priority 2011, dated 2017)",
  "key": {"[1]": {"assay": "Quantification of Ru in tissues (bio-distribution)", "conditions": "liver, kidney, spleen, lung and brain", "experimental": "Tricarbonyldichloro(methylthiogalactopyranoside) Ru(II) [Ru(CO)3Cl2(Gal-S-Me)], also referred to herein as Compound 1, was prepared by reacting CORM-2 with methylthiogalactopyranoside (Gal-S-Me) as described herein (see FIG. 2a and Materials and Methods section). The bio-distribution of Compound 1 in tissues was assessed by quantifying the levels of Ru and CO in the host by the method of Vreman et al., Anal Biochem (2005) 341:280-9. Liver, kidney, spleen, lung and brain tissues of non-infected mice (NI) were analyzed one hour after administration of Compound 1 and the control molecule, Compound 2 (FIG. 2b). […] The spleen is an organ that plays a crucial role in erythrophagocytosis, process important for red blood cell turnover, and recycling of iron. Erythrocytes are hydrolyzed by splenic macrophages, where the degradation of hemoglobin occurs, haem is release, and is catabolized by heme oxygenase-1 into biliverdin, carbon monoxide and ferrous iron (Fe^2+).\nThe tissue samples were weighed and dried at 80° C. overnight followed by 2 or more hours at 120° C. […] The Ru content was analyzed by an inductively coupled plasma-atomic emission spectrometer (ICP-AES) (model Ultima-Horiba Jobin Yvon, Longjumeau, France) using an external Ru standard method."}, "[2]": {"system": "P. berghei ANKA GFP", "assay_type": "in vivo, C57BL/6 mice", "conditions": "treated twice daily days 2-3; observed from about day 5 to day 8 of infection", "experimental": "It has previously been shown that administration of CO by inhalation protects P. berghei ANKA infected C57BL/6 mice from developing ECM (see, e.g., Pamplona et al. Nat Med (2007) 13:703-710). The inventors questioned whether CO-RMs could mimic the protection conferred by CO inhalation in P. berghei ANKA infection. To this end, a known ruthenium CORM, Ru(CO)3Cl2, also referred to herein as CORM-2, was tested on different schedules of treatment and doses in P. berghei ANKA infected C57BL/6 mice (data not shown).\nRed blood cells infected with green fluorescent protein (GFP)-transgenic P. berghei ANKA and P. berghei ANKA was used to infect mice (see, e.g., Franke-Fayard et al. Mol Biochem Parasitol (2004) 137:23-33). Cryopreserved parasites were passed once through C57BL/6 or DBA-2 mice before being used to infect experimental animals. C57BL/6 or DBA-2, 6- to 8-wk-old mice (sex matched in each experiment) were infected by intra-peritoneal (i.p.) injection of 10^6 infected RBCs. The infected mice were monitored daily for clinical symptoms of experimental cerebral malaria (ECM) including hemi- or paraplegia, head deviation, tendency to roll over on stimulation, ataxia and convulsions, or ALI, including dyspnea. Mice showing severe signs of ECM at day 5, 6 or 7 post-infection (p.i.) and ALI between days 7 and 9 were sacrificed. Parasitemia was assessed by flow cytometry for mice infected with GFP-expressing P. berghei ANKA, using tail blood, as previously described (see, e.g., Pamplona et al., Nat Med (2007) 13:703-710). Mean parasitemia is expressed as percentage of infected red blood cells. For mice infected with non-GFP P. berghei parasitemia was assessed daily by microscopic counting of Giemsa-stained thin blood smears. Mean parasitemia is expressed as percentage of infected red blood cells. Survival is expressed as percentage.\nIn order to evaluate the clinical presentation of experimental cerebral malaria, a classification was used in clinical stages from 0 to 4 (see, e.g., Bienvenu et al., Acta Trop (2008) 106:104-8; Franklin et al., Proc Natl Acad Sci USA (2011) 108:3689-94). Briefly, stage 0 indicates no detectable clinical symptoms, stage 1, ruffled fur; stage 2, ruffled fur and unbalancing; stage 3, limb paralysis and respiratory distress and stage 4, convulsions, coma or death. The mice were clinically classified before and after the treatment to evaluate the clinical recovery.\nCORM-2 (Sigma-Aldrich) and Compound 2 were solubilized using 10% dimethyl sulfoxide (DMSO; Sigma-Aldrich) in PBS. CORM-3 and Compound 1 were solubilized in PBS (lx). CORM-2 solution (20 mg/kg of body weight) was administered intravenously (i.v.) according to the chosen schedules. […] As vehicle control, we used a solution of 10% DMSO in PBS administered i.v. The concentrations of CORM-2 used in the present study were based on previous reports (see, e.g., Chen et al. Am. J. Pathol. (2009) 175:422-429; Sun et al., World. J. Gastroenterol. (2008) 14:547-553). Artesunate is presented as a powder of artesunic acid. Artesunate (AS) solution was prepared by dissolving 60 mg of anhydrous artesunic acid in 1 ml of sodium bicarbonate (5%) to form sodium artesunate and then diluted in 5 ml of NaCl (0.9%). An AS solution (i.p.) was administered at 40 mg/Kg/day, as described previously (see, e.g., Bienvenu, Acta Trop (2008) 106:104-108). The AS treatment was started when the infected non-treated mice presented the clinical stage 1 for experimental cerebral malaria."}, "[3]": {"system": "P. berghei ANKA", "assay": "In vitro replication of P. berghei ANKA", "assay_type": "cell-based, Plasmodium berghei", "conditions": "24 h", "experimental": "The data led the inventors to wonder whether Compound 1 could have a direct anti-parasitic effect on P. berghei ANKA and P. falciparum parasites. To this end, the effect of Compound 1 and the anti-malarial chloroquine (CQ) was monitored on the in vitro replication of P. falciparum 3D7 isolate and P. berghei ANKA for 48 h and 24 h, respectively."}, "[4]": {"system": "IFN-γ", "assay": "IFN-γ mRNA expression in brain by qRT-PCR", "assay_type": "in vivo, C57BL/6 mice", "experimental": "Mice were sacrificed, when infected control mice presented signs of ECM, and perfused intracardially with PBS to remove circulating RBC and leukocytes from the organs. RNA was isolated from brains, livers and lungs using Trizol Reagent (Invitrogen, Life technologies), according to the manufacturer's recommendation. The synthesis of the first-strand cDNA from the RNA templates was carried out using the Transcriptor First Strand cDNA Synthesis Kit (Roche). RT-PCR reactions were performed in the presence of SYBER Green (SYBER Green PCR master mix, Applied Biosystems) on an ABI PRISM 7500Fast (Applied Biosystem). Oligonucleotides used for the specific amplification of genes include:\nThe relative changes in gene expression between experimental and control groups were calculated by the Pfaffl method using hprt as internal control gene. Statistical Analysis"}, "[5]": {"assay": "Lung histology (hematoxylin and eosin) in M-AALI", "assay_type": "in vivo", "conditions": "infected DBA/2 mice", "experimental": "For evaluation of histological features, mice were deeply anesthetized until cessation of breathing when infected control mice presented signs of ECM or ALI. The livers, lungs, and brains were removed and fixed in 10% buffered formalin for 24-72 h. Four-micron sections were cut from paraffin-embedded tissues and stained with hematoxylin and eosin according to standard procedures. Histological analyses were performed on a Leica microscope DM 2500 (Leica Microsystems)."}},
  "note": "Entries after “also recorded” stand apart in the source; their conditions may differ.",
  "data": [
    {"smiles": "C[SH]([C@@H]1OC(CO)[C@H](O)[C@H](O)C1O)[Ru]([Cl])([Cl])([CH]=O)([CH]=O)[CH]=O", "note": "(some centres unmarked) [Compound 1, Tricarbonyldichloro(methylthiogalactopyranoside) Ru(II)]", "values": [
      {"measurement": "Ru distribution in organs", "setting": "[1]", "value": "marked affinity for the liver; also recorded: No signs of ruthenium are found in the brain"},
      {"measurement": "effect on parasitemia", "setting": "[2]", "value": "small but significant arrest in parasitemia"},
      {"measurement": "inhibition of in vitro growth", "setting": "[3]", "value": "does not inhibit in vitro growth"},
      {"measurement": "IFN-γ mRNA expression vs infected Compound 2-treated mice", "setting": "[4]", "value": "reduced"},
      {"measurement": "vascular congestion with pRBCs in lung tissue", "setting": "[5]", "value": "major differences in the vascular congestion with pRBCs"}
    ]}
  ]
}
